Test results: patent publication US20250145589A1, “PYRIDINE DERIVATIVE AND USE THEREOF” (SICHUAN HUIYU PHARMACEUTICAL CO., LTD., priority 2021, published 2025)
Read-outs that look alike come from different tables or passages of the source.

Tests used:
PI3Kα = PI3Kα (Homo sapiens (Human), UniProt P42336); test: Inhibition of PI3Kα efficacy assay (ADP-Glo kinase assay); format: biochemical; settings: read-out: PI3Kα inhibitory activity (IC50)
In short: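 ADP-Glo luminescent detection of ADP from PI3Kα acting on PI substrate with ATP, 60 min at RT; compounds in 8-point five-fold serial dilution from 2 mM DMSO stock. IC50 from four-parameter variable-slope fit.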

[1] = tested on: MIA PaCa-2-AMGR drug-resistant cell line; test: MIA PaCa-2-AMGR drug-resistant cell proliferation inhibitory activity test; format: cell-based; settings: 72 h, MIA PaCa-2-AMGR drug-resistant cells, 3 days incubation, CellTiter-Glo
In short: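 MIA PaCa-2 line made resistant by stepwise AMG510 exposure up to 1 μM. Cells seeded at 4×10^3/well overnight, then treated with 8 concentrations (5-fold dilutions) for 3 days at 37° C, 5% CO2 in DMEM with 10% FBS + 2.5% horse serum. Viability by CellTiter-Glo luminescence; IC50 versus no-inhibitor control.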

PI3Kα, sequence (P42336 whole entry): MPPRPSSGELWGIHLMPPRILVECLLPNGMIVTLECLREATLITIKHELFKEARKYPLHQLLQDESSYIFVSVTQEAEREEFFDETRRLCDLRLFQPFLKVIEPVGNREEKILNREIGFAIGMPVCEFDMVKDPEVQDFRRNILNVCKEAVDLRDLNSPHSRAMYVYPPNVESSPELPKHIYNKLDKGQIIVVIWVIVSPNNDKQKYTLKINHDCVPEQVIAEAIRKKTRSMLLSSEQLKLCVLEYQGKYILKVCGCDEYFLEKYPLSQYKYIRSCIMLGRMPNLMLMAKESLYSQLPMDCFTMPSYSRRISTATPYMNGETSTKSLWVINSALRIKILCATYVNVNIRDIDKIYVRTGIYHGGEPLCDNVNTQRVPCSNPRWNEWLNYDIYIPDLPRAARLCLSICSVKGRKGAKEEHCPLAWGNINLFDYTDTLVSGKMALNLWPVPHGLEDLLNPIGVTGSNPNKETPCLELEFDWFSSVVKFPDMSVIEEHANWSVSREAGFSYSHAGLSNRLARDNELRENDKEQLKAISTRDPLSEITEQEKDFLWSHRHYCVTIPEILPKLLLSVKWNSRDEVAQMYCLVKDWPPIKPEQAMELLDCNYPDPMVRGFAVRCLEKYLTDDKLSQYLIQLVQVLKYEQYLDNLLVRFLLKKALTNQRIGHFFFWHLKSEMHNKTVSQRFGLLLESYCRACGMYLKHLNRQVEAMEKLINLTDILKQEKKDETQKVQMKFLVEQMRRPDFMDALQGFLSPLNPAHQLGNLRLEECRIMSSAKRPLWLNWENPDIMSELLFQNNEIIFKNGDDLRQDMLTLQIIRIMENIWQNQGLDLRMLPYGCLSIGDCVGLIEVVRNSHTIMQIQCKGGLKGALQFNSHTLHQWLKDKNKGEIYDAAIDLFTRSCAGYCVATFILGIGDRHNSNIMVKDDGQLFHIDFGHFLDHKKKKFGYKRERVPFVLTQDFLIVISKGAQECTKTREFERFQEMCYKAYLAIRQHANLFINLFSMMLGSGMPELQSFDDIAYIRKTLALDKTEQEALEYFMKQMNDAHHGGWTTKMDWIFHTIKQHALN
PI3Kα, sequence (P27986 whole entry partner): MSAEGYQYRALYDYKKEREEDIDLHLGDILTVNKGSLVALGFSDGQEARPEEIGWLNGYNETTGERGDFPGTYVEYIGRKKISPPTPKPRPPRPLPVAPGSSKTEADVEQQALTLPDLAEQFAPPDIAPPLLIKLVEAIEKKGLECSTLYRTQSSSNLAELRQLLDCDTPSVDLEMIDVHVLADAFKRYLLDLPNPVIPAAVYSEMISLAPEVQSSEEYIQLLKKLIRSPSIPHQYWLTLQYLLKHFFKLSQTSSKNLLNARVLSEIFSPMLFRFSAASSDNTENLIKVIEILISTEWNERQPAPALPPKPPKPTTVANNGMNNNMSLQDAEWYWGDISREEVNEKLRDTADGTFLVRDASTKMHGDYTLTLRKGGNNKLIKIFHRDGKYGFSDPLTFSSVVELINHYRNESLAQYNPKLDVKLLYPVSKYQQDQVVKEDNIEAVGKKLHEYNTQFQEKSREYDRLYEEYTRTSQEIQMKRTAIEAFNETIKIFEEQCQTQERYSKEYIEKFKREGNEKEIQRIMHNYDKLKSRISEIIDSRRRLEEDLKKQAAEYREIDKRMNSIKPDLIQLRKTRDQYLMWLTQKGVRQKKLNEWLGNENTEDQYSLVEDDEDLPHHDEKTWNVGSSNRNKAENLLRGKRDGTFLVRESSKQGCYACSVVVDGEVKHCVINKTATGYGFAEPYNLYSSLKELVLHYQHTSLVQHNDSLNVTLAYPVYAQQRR

Compound	IC50 (PI3Kα; Table 2)	IC50 [1]	IC50 (PI3Kα; Table 3)	IC50 (PI3Kα; Table 4)
COc1ncc(-c2ccc3ncnc(N4CCN(C(=O)/C=C/C(C)=O)CC4)c3c2)cc1NS(=O)(=O)c1ccc(C#N)cc1F [Example 123, (E)-4-cyano-2-fluoro-N-(2-methoxy-5-(4-(4-(4-oxopent-2-enoyl)piperazin-1-yl)quinazolin-6-yl)pyridin-3-yl)benzenesulfonamide]	9.1 nM	328 nM	–	–
COc1ncc(-c2ccc3ncnc(N4CCN(C(=O)/C=C/C(C)=O)CC4)c3c2)cc1NS(=O)(=O)c1ccc(C(F)(F)F)cc1F [Example 124, (E)-2-fluoro-N-(2-methoxy-5-(4-(4-(4-oxopent-2-enoyl)piperazin-1-yl)quinazolin-6-yl)pyridin-3-yl)-4-(trifluoromethyl)benzenesulfonamide]	4.4 nM	83.9 nM	–	–
COc1ncc(-c2ccc3ncnc(N4CCN(C(=O)/C=C/C(C)=O)CC4)c3n2)cc1NS(=O)(=O)c1c(F)cccc1F [Example 131, (E)-2,6-difluoro-N-(2-methoxy-5-(4-(4-(4-oxopent-2-enoyl)piperazin-1-yl)pyrido[3,2-d]pyrimidin-6-yl)pyridin-3-yl)benzenesulfonamide]	–	29.6 nM	1.6 nM	–
COc1ncc(-c2ccc3ncnc(N4C5CCC4CN(C(=O)/C=C/C(C)=O)C5)c3c2)cc1NS(=O)(=O)c1ccc(F)cc1F [Example 144, 2,4-difluoro-N-(2-methoxy-5-(4-(3-((E)-4-oxopent-2-enoyl)-3,8-diazabicyclo[3.2.1]octan-8-yl)quinazolin-6-yl)pyridin-3-yl)benzenesulfonamide]	–	56.6 nM	–	3.2 nM
COc1ncc(-c2ccc3ncnc(N4CC5CCC(C4)N5C(=O)/C=C/C(C)=O)c3c2)cc1NS(=O)(=O)c1c(F)cccc1F [Example 145, 2,6-difluoro-N-(2-methoxy-5-(4-(8-((E)-4-oxopent-2-enoyl)-3,8-diazabicyclo[3.2.1]octan-3-yl)quinazolin-6-yl)pyridin-3-yl)benzenesulfonamide]	–	113 nM	–	0.44 nM
COc1ncc(-c2ccc3ncnc(N4CCC5(CC4)CN(C(=O)/C=C/C(C)=O)C5)c3c2)cc1NS(=O)(=O)c1ccccc1F [Example 150, (E)-2-fluoro-N-(2-methoxy-5-(4-(2-(4-oxopent-2-enoyl)-2,7-diazaspiro[3.5]nonan-7-yl)quinazolin-6-yl)pyridin-3-yl)benzenesulfonamide]	–	55.1 nM	–	0.11 nM
COc1ncc(-c2ccc3ncnc(N4CCN(C(=O)/C=C/C(C)=O)C[C@@H]4C)c3c2)cc1NS(=O)(=O)c1ccccc1F [Example 152, (S,E)-2-fluoro-N-(2-methoxy-5-(4-(2-methyl-4-(4-oxopent-2-enoyl)piperazin-1-yl)quinazolin-6-yl)pyridin-3-yl)benzenesulfonamide]	–	52.1 nM	–	0.28 nM
COc1ncc(-c2ccc3ncnc(N4CCN(C(=O)/C=C/C(C)=O)C[C@@H]4C)c3c2)cc1NS(=O)(=O)c1ccc(F)cc1 [Example 153, (S,E)-4-fluoro-N-(2-methoxy-5-(4-(2-methyl-4-(4-oxopent-2-enoyl)piperazin-1-yl)quinazolin-6-yl)pyridin-3-yl)benzenesulfonamide]	–	49.7 nM	–	0.73 nM
COc1ncc(-c2ccc3ncnc(N4CCN(C(=O)/C=C/C(C)=O)C[C@@H]4C)c3c2)cc1NS(=O)(=O)c1c(F)cc(F)cc1F [Example 154, (S,E)-2,4,6-trifluoro-N-(2-methoxy-5-(4-(2-methyl-4-(4-oxopent-2-enoyl)piperazin-1-yl)quinazolin-6-yl)pyridin-3-yl)benzenesulfonamide]	–	32.2 nM	–	0.54 nM
COc1ncc(-c2ccc3ncnc(N4CC5CCC(C4)N5C(=O)/C=C/C(C)=O)c3c2)cc1NS(=O)(=O)c1c(F)cc(F)cc1F [Example 155]	–	112 nM	–	0.3 nM
COc1ncc(-c2ccc3ncnc(N4CC5CCC4CN5C(=O)/C=C/C(C)=O)c3c2)cc1NS(=O)(=O)c1ccc(F)cc1F (centres unmarked) [Example 158, (E)-2,4-difluoro-N-(2-methoxy-5-(4-(5-(4-oxopent-2-enoyl)-2,5-diazabicyclo[2.2.2]octan-2-yl)quinazolin-6-yl)pyridin-3-yl)benzenesulfonamide]	–	136 nM	–	3 nM
CC(=O)/C=C/C(=O)N1CCN(c2ncnc3ccc(-c4cnc(OCC(F)(F)F)c(NS(=O)(=O)c5ccc(F)cc5F)c4)cc23)CC1 [Example 159, (E)-2,4-difluoro-N-(5-(4-(4-(4-oxopent-2-enoyl)piperazin-1-yl)quinazolin-6-yl)-2-(2,2,2-trifluoroethoxy)pyridin-3-yl)benzenesulfonamide]	–	226 nM	–	11.8 nM
COc1ncc(-c2ccc3ncnc(N4CCN(C(=O)/C=C/C(C)=O)CC4)c3c2)cc1NS(=O)(=O)c1sc(C)nc1C [Example 160, (E)-N-(2-methoxy-5-(4-(4-(4-oxopent-2-enoyl)piperazin-1-yl)quinazolin-6-yl)pyridin-3-yl)-2,4-dimethylthiazole-5-sulfonamide]	–	53.8 nM	–	2 nM
COc1ncc(-c2ccc3ncnc(N4CCC5(CC4)CN(C(=O)/C=C/C(C)=O)C5)c3c2)cc1NS(=O)(=O)c1ccc(F)cc1 [Example 161, (E)-4-fluoro-N-(2-methoxy-5-(4-(2-(4-oxopent-2-enoyl)-2,7-diazaspiro[3.5]nonan-7-yl)quinazolin-6-yl)pyridin-3-yl)benzenesulfonamide]	–	55.3 nM	–	0.82 nM
COc1ncc(-c2ccc3ncnc(N4CCN(C(=O)/C=C/C(C)=O)CC4)c3c2)cc1NS(=O)(=O)c1ncc(Cl)s1 [Example 165, (E)-5-chloro-N-(2-methoxy-5-(4-(4-(4-oxopent-2-enoyl)piperazin-1-yl)quinazolin-6-yl)pyridin-3-yl)thiazole-2-sulfonamide]	–	173 nM	–	1.2 nM
C=C(C(C)=O)C(=O)N1CCN(c2ncnc3ccc(-c4cnc(OC)c(NS(=O)(=O)c5ccc(F)cc5F)c4)cc23)CC1 [Example 168, 2,4-difluoro-N-(2-methoxy-5-(4-(4-(2-methylene-3-oxobutanoyl)piperazin-1-yl)quinazolin-6-yl)pyridin-3-yl)benzenesulfonamide]	–	192 nM	–	6.2 nM
COc1ncc(-c2ccc3ncnc(N4CCN(C(=O)/C=C/C(C)=O)CC4)c3c2)cc1NS(=O)(=O)c1ccc(F)cc1Cl [Example 169, (E)-2-chloro-4-fluoro-N-(2-methoxy-5-(4-(4-(4-oxopent-2-enoyl)piperazin-1-yl)quinazolin-6-yl)pyridin-3-yl)benzenesulfonamide]	–	54.4 nM	–	3.8 nM
COc1ncc(-c2ccc3ncnc(N4CCN(C(=O)/C=C/C(C)=O)CC4)c3c2)cc1NS(C)(=O)=O [Example 170, (E)-N-(2-methoxy-5-(4-(4-(4-oxopent-2-enoyl)piperazin-1-yl)quinazolin-6-yl)pyridin-3-yl)methane-sulfonamide]	–	183 nM	–	7 nM
COc1ncc(-c2ccc3ncnc(N4CCC5(CC4)CN(C(=O)/C=C/C(C)=O)C5)c3c2)cc1NS(=O)(=O)c1ccc(F)cc1Cl [Example 171, (E)-2-chloro-4-fluoro-N-(2-methoxy-5-(4-(2-(4-oxopent-2-enoyl)-2,7-diazaspiro[3.5]nonan-7-yl)quinazolin-6-yl)pyridin-3-yl)benzene-sulfonamide]	–	32.9 nM	–	12.9 nM
COc1ncc(-c2ccc3ncnc(N4CCN(C(=O)/C=C/C(C)=O)CC4)c3c2)cc1NS(=O)(=O)c1ccncc1C [Example 172, (E)-N-(2-methoxy-5-(4-(4-(4-oxopent-2-enoyl)piperazin-1-yl)quinazolin-6-yl)pyridin-3-yl)-3-methyl-pyridine-4-sulfonamide]	–	256 nM	–	4.1 nM
COc1ncc(-c2ccc3ncnc(N4CCN(C(=O)/C=C/C(C)=O)C[C@@H]4C)c3c2)cc1NS(=O)(=O)c1sc(C)nc1C [Example 173, (S,E)-N-(2-methoxy-5-(4-(2-methyl-4-(4-oxopent-2-enoyl)piperazin-1-yl)quinazolin-6-yl)pyridin-3-yl)-2,4-dimethyl-thiazole-5-sulfonamide]	–	62.6 nM	–	2.2 nM
COc1ncc(-c2ccc3ncnc(N4CCN(C(=O)/C=C/C(C)=O)C[C@@H]4C)c3c2)cc1NS(=O)(=O)c1ccc(F)cc1Cl [Example 174, (S,E)-2-chloro-4-fluoro-N-(2-methoxy-5-(4-(2-methyl-4-(4-oxopent-2-enoyl)piperazin-1-yl)quinazolin-6-yl)pyridin-3-yl)benzene-sulfonamide]	–	26.3 nM	–	3.5 nM
COc1ncc(-c2ccc3ncnc(N4CC5CCC(C4)N5C(=O)/C=C/C(C)=O)c3c2)cc1NS(=O)(=O)c1ccc(F)cc1Cl [Example 175, 2-chloro-4-fluoro-N-(2-methoxy-5-(4-(8-((E)-4-oxopent-2-enoyl)-3,8-diazabicyclo [3.2.1]octan-3-yl)quinazolin-6-yl)pyridin-3-yl)benzene-sulfonamide]	–	36.7 nM	–	6 nM
COc1ncc(-c2ccc3ncnc(N4CC5CCC(C4)N5C(=O)/C=C/C(C)=O)c3c2)cc1NS(=O)(=O)c1sc(C)nc1C [Example 176, N-(2-methoxy-5-(4-(8-((E)-4-oxopent-2-enoyl)-3,8-diazabicyclo [3.2.1]octan-3-yl)quinazolin-6-yl)pyridin-3-yl)-2,4-dimethyl-thiazole-5-sulfonamide]	–	48.6 nM	–	2.6 nM
COc1ncc(-c2ccc3ncnc(N4CCN(C(=O)/C=C/C(C)=O)CC4)c3c2)cc1NS(=O)(=O)c1ccc(Cl)cc1F [Example 177, (E)-4-chloro-2-fluoro-N-(2-methoxy-5-(4-(4-(4-oxopent-2-enoyl)piperazin-1-yl)quinazolin-6-yl)pyridin-3-yl)benzene-sulfonamide]	–	36.6 nM	–	5 nM
